Test results: US20260224588A1, “BENZODIAZEPINONE-DERIVED INHIBITORS OF EGFR AND HER2” (The Research Foundation for the State University of New York, priority 2023, published 2026)

How the values were obtained:
AAK1 = molecular target: T1, AAK1 (Homo sapiens, UniProt Q2M2I8); assay: KINOMEscan; type: binding; conditions: 1 μM of compound 4; read-out: POC
T1 construct: purchased Eurofins DiscoverX Corporation

[1] = molecular target: T2, ABL1(H396P)-nonphosphorylated (Homo sapiens, UniProt P00519, H396P); assay: KINOMEscan; type: binding; conditions: 1 μM of compound 4; read-out: POC
T2 construct: purchased Eurofins DiscoverX Corporation

ALK(L1196M) = ALK(L1196M) (Homo sapiens, UniProt Q9UM73, L1196M); assay: KINOMEscan; type: binding; conditions: 1 μM of compound 4; read-out: POC
CDKL1 = CDKL1 (Homo sapiens, UniProt Q00532); assay: KINOMEscan; type: binding; conditions: 1 μM of compound 4; read-out: POC
DRAK2 = DRAK2 (Homo sapiens, UniProt O94768); assay: KINOMEscan; type: binding; conditions: 1 μM of compound 4; read-out: POC
EGFR(E746-A750del) = molecular target: T3, EGFR(E746-A750del) (Homo sapiens, UniProt P00533, DEL746-750); assay: KINOMEscan; type: binding; conditions: 1 μM of compound 4; read-out: POC
T3 construct: purchased Eurofins DiscoverX (KINOMEscan service)

EGFR(G719C) = molecular target: T4, EGFR(G719C) (Homo sapiens, UniProt P00533, G719C); assay: KINOMEscan; type: binding; conditions: 1 μM of compound 4; read-out: POC
T4 construct: purchased Eurofins DiscoverX (KINOMEscan service)

FLT3 = molecular target: T5, FLT3 (Homo sapiens, UniProt P36888); assay: KINOMEscan; type: binding; conditions: 1 μM of compound 4; read-out: POC
T5 construct: purchased Eurofins DiscoverX Corporation

FLT3(K663Q) = molecular target: T6, FLT3(K663Q) (Homo sapiens, UniProt P36888, K663Q); assay: KINOMEscan; type: binding; conditions: 1 μM of compound 4; read-out: POC
T6 construct: purchased Eurofins DiscoverX Corporation

[2] = molecular target: JAK3(JH1domain-catalytic) (Homo sapiens, UniProt P52333); assay: KINOMEscan; type: binding; conditions: 1 μM of compound 4; read-out: POC
JNK1 = JNK1 (Homo sapiens, UniProt P45983); assay: KINOMEscan; type: binding; conditions: 1 μM of compound 4; read-out: POC
JNK2 = JNK2 (Homo sapiens, UniProt P45984); assay: KINOMEscan; type: binding; conditions: 1 μM of compound 4; read-out: POC
KIT-autoinhibited = KIT-autoinhibited (Homo sapiens, UniProt P10721); assay: KINOMEscan; type: binding; conditions: 1 μM of compound 4; read-out: POC
LIMK1 = LIMK1 (Homo sapiens, UniProt P53667); assay: KINOMEscan; type: binding; conditions: 1 μM of compound 4; read-out: POC
MEK4 = MEK4 (Homo sapiens, UniProt P45985); assay: KINOMEscan; type: binding; conditions: 1 μM of compound 4; read-out: POC
MST2 = MST2 (Homo sapiens, UniProt Q13188); assay: KINOMEscan; type: binding; conditions: 1 μM of compound 4; read-out: POC
MST4 = MST4 (Homo sapiens, UniProt Q9P289); assay: KINOMEscan; type: binding; conditions: 1 μM of compound 4; read-out: POC
p38-delta = molecular target: T7, p38-delta (Homo sapiens, UniProt O15264); assay: KINOMEscan; type: binding; conditions: 1 μM of compound 4; read-out: POC
T7 construct: purchased Eurofins DiscoverX Corporation (KINOMEscan)

PAK7 = molecular target: T8, PAK7 (Homo sapiens, UniProt Q9P286); assay: KINOMEscan; type: binding; conditions: 1 μM of compound 4; read-out: POC
T8 construct: purchased Eurofins DiscoverX Corporation (KINOMEscan)

PIK3CA(Q546K) = PIK3CA(Q546K) (Homo sapiens, UniProt P42336, Q546K); assay: KINOMEscan; type: binding; conditions: 1 μM of compound 4; read-out: POC
PRKD2 = PRKD2 (Homo sapiens, UniProt Q9BZL6); assay: KINOMEscan; type: binding; conditions: 1 μM of compound 4; read-out: POC
RET = molecular target: T9, RET (Homo sapiens, UniProt P07949); assay: KINOMEscan; type: binding; conditions: 1 μM of compound 4; read-out: POC
T9 construct: purchased Eurofins DiscoverX Corporation (KINOMEscan screening service)

SRC = molecular target: T10, SRC (Homo sapiens, UniProt P12931); assay: KINOMEscan; type: binding; conditions: 1 μM of compound 4; read-out: POC
T10 construct: purchased Eurofins DiscoverX (KINOMEscan service)

SRPK3 = molecular target: T11, SRPK3 (Homo sapiens, UniProt Q9UPE1); assay: KINOMEscan; type: binding; conditions: 1 μM of compound 4; read-out: POC
T11 construct: purchased Eurofins DiscoverX (KINOMEscan service)

[3] = Metabolic stability in Human Liver Microsomes (HLM); type: in vitro ADME
Procedure: Metabolic stability in Human Liver Microsomes (HLM). Pooled liver microsomes from humans (male) were purchased from Sekisui XenoTech, LLC, Kansas City, KS, USA. Metabolic stability assays were performed in the presence of an NADPH-regenerating system consisting of 5 mM glucose-6-phosphate, 5 U/mL glucose-6-phosphate dehydrogenase, and 1 mM NADP^+. Liver microsomes (20 mg/mL), NADPH-regenerating system, and 4 mM MgCl2·6 H2O in 0.1 M TRIS-HCl-buffer (pH 7.4) were preincubated for 5 min at 37° C. and 750 rpm on a shaker. The reaction was started by adding the preheated compound at 10 mM resulting in a final concentration of 0.1 mM. The reaction was quenched at selected time points (0, 10, 20, 30, 60, and 120 min) by pipetting 100 μL of internal standard (ketoprofen) at a concentration of 150 μM in acetonitrile. The samples were vortexed for 30 s and centrifuged (21910 relative centrifugal force, 4° C., 20 min). The supernatant was used directly for LC-MS analysis. All compound incubations were conducted at least in triplicates. Additionally, a negative control containing BSA (20 mg/mL) instead of liver microsomes and a positive control using verapamil instead of compound were performed. A limit of 1% organic solvent during incubation was not exceeded. […]

Sequence of JAK3(JH1domain-catalytic) (P52333 822-1111 limits assumed): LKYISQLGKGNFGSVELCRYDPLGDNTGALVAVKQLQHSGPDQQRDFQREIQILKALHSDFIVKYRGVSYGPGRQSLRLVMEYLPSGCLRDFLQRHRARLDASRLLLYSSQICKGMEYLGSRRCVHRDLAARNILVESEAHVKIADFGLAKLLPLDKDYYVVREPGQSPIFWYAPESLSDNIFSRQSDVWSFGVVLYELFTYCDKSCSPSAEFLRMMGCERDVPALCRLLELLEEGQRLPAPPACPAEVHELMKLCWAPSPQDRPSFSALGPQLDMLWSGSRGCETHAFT
T11 sequence (Q9UPE1 whole entry): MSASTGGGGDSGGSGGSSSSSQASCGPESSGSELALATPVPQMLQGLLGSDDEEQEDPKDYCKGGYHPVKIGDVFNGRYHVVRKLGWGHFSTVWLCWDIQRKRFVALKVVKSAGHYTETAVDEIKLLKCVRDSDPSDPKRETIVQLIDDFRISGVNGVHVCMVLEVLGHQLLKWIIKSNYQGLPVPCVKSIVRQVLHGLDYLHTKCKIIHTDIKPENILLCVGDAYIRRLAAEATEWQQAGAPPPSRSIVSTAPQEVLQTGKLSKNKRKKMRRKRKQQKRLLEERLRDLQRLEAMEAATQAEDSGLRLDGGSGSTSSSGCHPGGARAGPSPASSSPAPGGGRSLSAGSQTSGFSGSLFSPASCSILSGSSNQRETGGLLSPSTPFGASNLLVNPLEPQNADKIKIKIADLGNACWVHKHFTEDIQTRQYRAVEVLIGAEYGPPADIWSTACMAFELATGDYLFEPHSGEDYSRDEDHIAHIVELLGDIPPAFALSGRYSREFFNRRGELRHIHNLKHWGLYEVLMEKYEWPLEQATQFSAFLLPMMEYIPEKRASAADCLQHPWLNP
Sequence of PIK3CA(Q546K) (P42336 whole entry Q546K): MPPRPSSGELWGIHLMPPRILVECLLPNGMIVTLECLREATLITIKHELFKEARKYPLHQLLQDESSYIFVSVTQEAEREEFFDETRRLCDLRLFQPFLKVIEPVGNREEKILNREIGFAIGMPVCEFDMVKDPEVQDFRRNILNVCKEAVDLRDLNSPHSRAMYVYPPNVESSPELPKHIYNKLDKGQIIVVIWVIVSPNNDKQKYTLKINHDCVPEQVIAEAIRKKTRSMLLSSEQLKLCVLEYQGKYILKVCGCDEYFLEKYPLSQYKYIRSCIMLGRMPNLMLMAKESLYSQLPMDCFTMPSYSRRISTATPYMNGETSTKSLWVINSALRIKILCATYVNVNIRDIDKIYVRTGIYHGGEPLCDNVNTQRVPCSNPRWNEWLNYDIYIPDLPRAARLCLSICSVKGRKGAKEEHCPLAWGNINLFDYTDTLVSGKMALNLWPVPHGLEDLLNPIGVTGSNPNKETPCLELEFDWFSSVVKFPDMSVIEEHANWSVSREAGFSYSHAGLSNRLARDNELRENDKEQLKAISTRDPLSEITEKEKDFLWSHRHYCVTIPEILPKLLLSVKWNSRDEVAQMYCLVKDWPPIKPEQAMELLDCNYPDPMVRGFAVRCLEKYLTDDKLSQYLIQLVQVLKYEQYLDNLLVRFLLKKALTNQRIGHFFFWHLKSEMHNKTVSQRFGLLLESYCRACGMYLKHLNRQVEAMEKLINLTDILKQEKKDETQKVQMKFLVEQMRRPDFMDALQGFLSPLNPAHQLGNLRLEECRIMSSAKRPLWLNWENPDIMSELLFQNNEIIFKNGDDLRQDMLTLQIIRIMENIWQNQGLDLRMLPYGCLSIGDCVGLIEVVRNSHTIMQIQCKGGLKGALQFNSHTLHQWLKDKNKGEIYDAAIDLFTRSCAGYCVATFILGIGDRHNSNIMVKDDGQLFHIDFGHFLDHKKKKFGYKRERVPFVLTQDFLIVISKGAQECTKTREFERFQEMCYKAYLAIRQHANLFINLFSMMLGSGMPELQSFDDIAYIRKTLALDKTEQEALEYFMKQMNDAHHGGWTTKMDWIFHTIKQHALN
T8 sequence (Q9P286 whole entry): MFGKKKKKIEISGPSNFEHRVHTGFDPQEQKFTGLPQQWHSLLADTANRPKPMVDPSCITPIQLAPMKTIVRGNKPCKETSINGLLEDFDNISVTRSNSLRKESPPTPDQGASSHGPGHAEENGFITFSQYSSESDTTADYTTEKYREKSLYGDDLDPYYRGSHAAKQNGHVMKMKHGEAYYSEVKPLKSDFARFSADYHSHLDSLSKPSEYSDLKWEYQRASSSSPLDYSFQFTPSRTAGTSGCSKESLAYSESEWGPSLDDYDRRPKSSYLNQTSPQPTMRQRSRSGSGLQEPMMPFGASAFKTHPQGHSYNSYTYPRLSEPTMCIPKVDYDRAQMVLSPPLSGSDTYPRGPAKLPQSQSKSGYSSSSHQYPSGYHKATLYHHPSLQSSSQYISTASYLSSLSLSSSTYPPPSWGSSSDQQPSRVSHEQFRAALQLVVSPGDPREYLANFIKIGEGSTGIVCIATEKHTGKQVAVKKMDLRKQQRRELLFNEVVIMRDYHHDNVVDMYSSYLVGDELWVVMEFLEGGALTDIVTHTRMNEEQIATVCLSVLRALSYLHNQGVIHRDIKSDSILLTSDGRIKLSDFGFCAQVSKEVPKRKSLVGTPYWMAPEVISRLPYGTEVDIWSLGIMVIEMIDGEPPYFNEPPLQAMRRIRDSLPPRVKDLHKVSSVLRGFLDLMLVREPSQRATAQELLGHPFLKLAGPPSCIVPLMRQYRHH
Sequence of MEK4 (P45985 whole entry): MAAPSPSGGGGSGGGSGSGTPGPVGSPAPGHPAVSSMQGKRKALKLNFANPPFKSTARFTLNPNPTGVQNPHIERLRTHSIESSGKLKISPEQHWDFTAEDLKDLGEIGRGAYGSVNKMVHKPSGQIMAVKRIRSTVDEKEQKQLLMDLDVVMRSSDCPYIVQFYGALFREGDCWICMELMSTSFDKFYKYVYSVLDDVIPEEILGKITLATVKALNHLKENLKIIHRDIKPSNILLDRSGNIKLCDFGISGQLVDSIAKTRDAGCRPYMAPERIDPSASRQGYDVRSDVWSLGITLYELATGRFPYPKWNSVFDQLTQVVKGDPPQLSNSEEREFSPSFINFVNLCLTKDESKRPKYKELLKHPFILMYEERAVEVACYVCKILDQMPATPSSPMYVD
Sequence of DRAK2 (O94768 whole entry): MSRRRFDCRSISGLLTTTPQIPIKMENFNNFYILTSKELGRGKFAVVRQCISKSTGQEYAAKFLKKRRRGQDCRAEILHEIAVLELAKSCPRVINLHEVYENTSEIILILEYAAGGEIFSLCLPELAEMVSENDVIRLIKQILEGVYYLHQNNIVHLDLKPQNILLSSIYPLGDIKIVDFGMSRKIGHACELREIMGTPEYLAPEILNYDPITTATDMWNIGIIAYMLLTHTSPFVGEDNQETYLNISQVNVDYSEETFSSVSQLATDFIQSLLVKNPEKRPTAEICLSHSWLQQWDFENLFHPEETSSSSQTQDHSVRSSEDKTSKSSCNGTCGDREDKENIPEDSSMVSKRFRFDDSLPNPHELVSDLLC
Sequence of LIMK1 (P53667 whole entry): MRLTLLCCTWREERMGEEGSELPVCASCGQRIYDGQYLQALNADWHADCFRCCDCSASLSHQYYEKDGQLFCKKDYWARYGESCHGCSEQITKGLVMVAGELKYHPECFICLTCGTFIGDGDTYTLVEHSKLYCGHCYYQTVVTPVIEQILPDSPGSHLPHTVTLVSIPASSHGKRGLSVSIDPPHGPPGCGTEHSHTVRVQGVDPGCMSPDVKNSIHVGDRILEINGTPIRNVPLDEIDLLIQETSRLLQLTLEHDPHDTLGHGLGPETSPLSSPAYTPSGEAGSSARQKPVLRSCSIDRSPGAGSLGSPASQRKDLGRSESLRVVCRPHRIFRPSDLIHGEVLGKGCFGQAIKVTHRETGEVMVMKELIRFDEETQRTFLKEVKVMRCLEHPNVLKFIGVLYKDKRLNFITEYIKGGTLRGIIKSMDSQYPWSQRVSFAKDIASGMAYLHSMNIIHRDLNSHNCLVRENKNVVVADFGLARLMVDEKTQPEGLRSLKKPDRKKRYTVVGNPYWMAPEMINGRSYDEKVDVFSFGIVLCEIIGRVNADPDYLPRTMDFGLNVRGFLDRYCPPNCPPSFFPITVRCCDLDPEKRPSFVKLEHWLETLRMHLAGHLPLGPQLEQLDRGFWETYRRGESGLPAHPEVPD
Sequence of MST2 (Q13188 whole entry): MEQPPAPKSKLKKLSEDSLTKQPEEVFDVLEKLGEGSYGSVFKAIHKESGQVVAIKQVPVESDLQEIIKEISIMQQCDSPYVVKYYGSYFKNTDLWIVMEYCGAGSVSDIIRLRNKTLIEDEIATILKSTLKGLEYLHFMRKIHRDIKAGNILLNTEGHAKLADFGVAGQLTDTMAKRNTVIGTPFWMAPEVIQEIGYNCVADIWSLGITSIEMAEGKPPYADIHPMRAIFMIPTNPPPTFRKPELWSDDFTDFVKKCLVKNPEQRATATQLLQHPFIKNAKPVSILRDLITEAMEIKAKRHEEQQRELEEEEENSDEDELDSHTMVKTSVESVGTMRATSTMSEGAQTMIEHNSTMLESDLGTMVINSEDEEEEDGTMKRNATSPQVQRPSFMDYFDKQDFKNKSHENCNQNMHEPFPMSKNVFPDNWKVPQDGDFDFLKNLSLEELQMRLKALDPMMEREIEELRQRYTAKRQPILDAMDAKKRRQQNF
Sequence of MST4 (Q9P289 whole entry): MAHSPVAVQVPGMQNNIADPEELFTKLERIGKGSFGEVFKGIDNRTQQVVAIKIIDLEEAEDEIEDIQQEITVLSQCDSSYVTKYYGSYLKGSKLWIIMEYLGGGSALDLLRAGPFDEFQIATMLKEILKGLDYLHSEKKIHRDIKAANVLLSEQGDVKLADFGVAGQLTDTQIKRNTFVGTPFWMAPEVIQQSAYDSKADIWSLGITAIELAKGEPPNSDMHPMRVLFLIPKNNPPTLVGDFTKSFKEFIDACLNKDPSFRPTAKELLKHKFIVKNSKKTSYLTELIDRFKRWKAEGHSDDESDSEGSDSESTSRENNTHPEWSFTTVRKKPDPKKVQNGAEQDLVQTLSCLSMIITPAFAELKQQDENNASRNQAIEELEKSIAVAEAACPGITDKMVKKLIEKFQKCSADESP

In the case of `C=CC(=O)Nc1ccc(OC)c(Nc2cc(-c3[nH]c(CC)nc3-c3cccc(NC(=O)c4cccc5c4NC(=O)c4ccccc4N5)c3)ccn2)c1` [Compound 4, N-(3-(5-(2-((5-Acrylamido-2-methoxyphenyl)amino)pyridin-4-yl)-2-ethyl-1H-imidazol-4-yl)phenyl)-11-oxo-10,11-dihydro-5H-dibenzo[b,e][1,4]diazepine-9-carboxamide], the remaining binding at 1 µM (AAK1) is reported as 100%, the remaining binding at 1 µM [1] is reported as 97% and the remaining binding at 1 µM (ALK(L1196M)) is reported as 89%. For the same compound, the remaining binding at 1 µM (CDKL1) was 100%, the remaining binding at 1 µM (DRAK2) was 94% and the remaining binding at 1 µM (EGFR(E746-A750del)) was 13%. It also gave a remaining binding at 1 µM (EGFR(G719C)) of 6.5%, a remaining binding at 1 µM (FLT3) of 100% and a remaining binding at 1 µM (FLT3(K663Q)) of 87%. It also gave a remaining binding at 1 µM [2] of 100%, a remaining binding at 1 µM (JNK1) of 85% and a remaining binding at 1 µM (JNK2) of 78%. It also gave a remaining binding at 1 µM (KIT-autoinhibited) of 100%, a remaining binding at 1 µM (LIMK1) of 79% and a remaining binding at 1 µM (MEK4) of 100%. It also gave a remaining binding at 1 µM (MST2) of 14%, a remaining binding at 1 µM (MST4) of 94% and a remaining binding at 1 µM (p38-delta) of 100%. For the same compound, the remaining binding at 1 µM (PAK7) was 77%, the remaining binding at 1 µM (PIK3CA(Q546K)) was 100% and the remaining binding at 1 µM (PRKD2) was 62%. The remaining binding at 1 µM (RET) was 99%, the remaining binding at 1 µM (SRC) was 73% and the remaining binding at 1 µM (SRPK3) was 100%. The “Metabolic stability in liver microsomes” value [3] was “metabolically stable”.
